Consider two compounds from patent US20230277505A1 (Arena Pharmaceuticals, Inc., priority 2003, published 2023).

Like-named read-outs stand apart in the source and are kept apart here.

In one series the test system is male Wistar rats. In words: Effect on delta power, sleep and wakefulness in rats (EEG/EMG). The format is in vivo, rat. As to conditions: oral gavage. How it is done: In this example, the effect of Compounds of the Invention, such as Compound 1 and Compound 26, on sleep and wakefulness was compared to the reference drug zolpidem. Drugs were administered during the middle of the light period (inactivity period).
Briefly, four compounds of the invention, including Compound 1 (1.0 mg/kg) and Compound 26 (1.4 mg/kg), were tested for their effects on sleep parameters and were compared to zolpidem (5.0 mg/kg, Sigma, St. Louis, Mo.) and vehicle control (80% Tween 80, Sigma, St. Louis, Mo.). A repeated measures design was employed in which each rat was to receive seven separate dosings via oral gavage. The first and seventh dosings were vehicle and the second through sixth were the test compounds and zolpidem given in counter-balanced order. Since all dosings were administered while the rats were connected to the recording apparatus, 60% CO2/40% O2 gas was employed for light sedation during the oral gavage process. Rats appeared fully recovered within 60 seconds following the procedure. A minimum of three days elapsed between dosings. […] Dosing typically occurred between 13:15 and 13:45 using a 24 hour notation. All dosing solutions were made fresh on the day of dosing. Following each dosing, animals were continuously recorded until lights out the following day (˜30 hours).
Animals were housed in a temperature controlled recording room under a 12/12 light/dark cycle (lights on at 7:00 am) and had food and water available ad libitum. Room temperature (24+2° C.), humidity (50+20% relative humidity) and lighting conditions were monitored continuously via computer. Drugs were administered via oral gavage as described above, with a minimum of three days between dosings. Animals were inspected daily in accordance with NIH guidelines. […]
EEG and EMG data were scored visually in 10 second epochs for waking (W), REMS, NREMS. Scored data were analyzed and expressed as time spent in each state per half hour. Sleep bout length and number of bouts for each state were calculated in hourly bins. […]

Series [1] in a line: Plasma drug concentration in the PET occupancy study. The format is in vivo, rhesus monkey. Particulars: 0.5 mg/kg i.v.; after 8 hours. How it is done: The monkey was anesthetized by using ketamine (10 mg/kg) and was maintained using 0.7 to 1.25% isoflurane. Typically, the monkey had two i.v. lines, one on each arm. One i.v. line was used to administer the radioligand, while the other line was used to draw blood samples for pharmacokinetic data of the radioligand as well as the cold drugs. Generally, rapid blood samples were taken as the radioligand is administered which then taper out by the end of the scan. A volume of approximately 1 ml of blood was taken per time point, which was spun down, and a portion of the plasma was counted for radioactivity in the blood.
The results of both an 8 hour and 24 hour study are shown. The test compound was administered via i.v. infusion in 5.0 ml of 80% PEG400. For the 8 hour study, venous blood samples were drawn at 5 minutes post Compound 1 and 15 minutes before PET scan. For the 24 hour study, venous blood samples were drawn at 5 minutes post Compound 1 and 10 minutes before PET scan.

The test system of series [2] is DOI-induced hypolocomotion in rats. In words: Attenuation of DOI-induced hypolocomotion in rats. The format is in vivo, rat. Particulars: 50 μmol/kg p.o. 60 min before DOI 0.3 mg/kg s.c. How it is done: In this example, compounds of the invention, such as Compound 1 and Compound 26, were tested for inverse agonist activity by determining whether these compounds could attenuate DOI-induced hypolocomotion in rats in a novel environment. DOI is a potent 5HT2A/2C receptor agonist that crosses the blood-brain barrier.
Male Sprague-Dawley rats (Harlan, San Diego, Calif.) weighing between 200-300 g were used for all tests. Rats were housed three to four per cage. These rats were naïve to experimental testing and drug treatment. Rats were handled one to three days before testing to acclimate them to experimental manipulation. Rats were fasted overnight prior to testing.
(R)-DOI HCl (C11H16INO2·HCl) was obtained from Sigma-Aldrich, and was dissolved in 0.9% saline. Compounds of the invention were synthesized at Arena Pharmaceuticals Inc. and were dissolved in 100% PEG400. […]
The “Motor Monitor” (Hamilton-Kinder, Poway, Calif.) was used for all activity measurement. This apparatus recorded rears using infrared photobeams. […]
In determining the effects of compounds of the invention on DOI-induced hypoactivity, animals were first injected with vehicle or the compound of the invention (50 μmol/kg) in their home cages. […] 10 min after DOI administration, animals were placed into the activity apparatus and rearing activity was measured for 10 minutes.
Results (total rears over 10 minutes) were analyzed by t-test. […]

The target of a further series is 5HT2A receptor (Macaca mulatta (Rhesus macaque), UniProt P50128). In words: Serotonin 5-HT2A receptor occupancy study in monkey (PET, 18F-altanserin). The format is in vivo. Particulars: iv.
For series [3] the following is noted: glaucoma patients; cited from earlier work.
For series [4] the following is noted: 24 months of treatment; patients; cited from earlier work.

For the compound `COc1ccc(NC(=O)Nc2ccc(Cl)cc2)cc1-c1c(Br)cnn1C` [Compound 1, 1-[3-(4-Bromo-2-methyl-2H-pyrazol-3-yl)-4-methoxy-phenyl]-3-(4-Chloro-phenyl)-urea], in the series on male Wistar rats (1.0 mg/kg, second hour), the NREMS bout length result is recorded as “significantly increased”. Also, the REMS bout length result in the series with male Wistar rats (Compound 1 1.0 mg/kg, Compound 26 1.4 mg/kg, fourth hour) was “significantly increased”. Besides, the “delta power during NREMS” value in the series on male Wistar rats (Compound 1 1.0 mg/kg, Compound 26 1.4 mg/kg, second hour following dosing (15:00), vs vehicle) is listed as “significantly increased”. Moreover, in series [1], the “test drug concentrations in plasma samples” value is reported as “no measurable test drug concentrations”. In series [2], the “DOI-induced hypolocomotion (total rears over 10 minutes)” value was “attenuated DOI-induced hypolocomotion”. The receptor occupancy at 0.5 mg/kg is around 90% at 5HT2A receptor (read-out: 5HT2A receptor occupancy, 0.5 mg/kg i.v., 8 hours following drug administration, cortical regions) and around 80% on 5HT2A receptor (read-out: 5HT2A receptor occupancy, 0.5 mg/kg i.v., 24 hours post-injection).

For the compound `COc1cccc(CCc2ccccc2OCC(CN(C)C)OC(=O)CCC(=O)O)c1` (stereo not drawn) [sarpogrelate], the IOP result in series [3] is on record as “significantly lower”. For the same compound, the “urinary albumin excretion level” value in series [4] was “significantly reduced”.
